pIC50: −log10 of the molar value. Read-outs that look alike come from different tables or passages of the source.
Tested on: RPEMYC^H2B-GFP cells
Assay: Phenotypic screening assay (mitotic arrest, polyploidy)
Format: cell-based
Conditions: 1 nM to 30 μM; for pIC50: read-out: Proliferative arrest (>50%)
Method: We have previously developed a mechanism-informed phenotypic screening assay to identify novel antimitotic agents. Equipped with a prior understanding of the versatile functions of the chromosomal passenger protein (CPP) complex in orchestrating karyokinesis and cytokinesis, the screening assay is to score for phenotypes typically seen when the CPP complex is disabled. Specifically, the parameters for a positive hit are a temporary elevation of mitotic index (MI) at 24 hours of drug treatment and an accumulation of polyploid cells at 48 hours of drug treatment, indicative of mitotic arrest and cytokinetic failure respectively. These parameters exclude compounds that elicit only a prolonged arrest of cells in mitosis, a phenotype typically provoked by spindle toxins. The screening procedure is briefly summarized here. RPEMYC^H2B-GFP cells engineered to express a Histone 2B-EGFP fusion protein were passaged as batches of 96-well plates, 18-24 hours before exposure to the chemical compounds of the present disclosure at concentrations from 1 nM to 30 μM. At 24, 48 or 72 hours after initiation of treatment, cells were analyzed for either an arrest in mitosis or a change in DNA content by GE IN-Cell Analyzer 2000. As set forth in Table 2 below, a value of greater than or equal to 1 nM and less than or equal to 1.0 μM is marked “A”; a value greater than 1.00 μM and less than or equal to 10.0 μM is marked “B”; a value greater than 10.0 μM and less than or equal to 30.0 μM is marked “C”; and a value greater than 30.0 μM is marked “D.”

[1] = read-out: Min. Effective conc. for Polyploidy (≥5%)

Row | Compound | minimal effective concentration [1] [µM] | minimal effective concentration (read-out: Mitotic Arrest (≥5%)) [µM] | pIC50
1 | CCOc1cc(Oc2ccnc3cc(OC)c(C(N)=O)cc23)cc(-n2cccn2)c1 [Compound 59, 4-(3-ethoxy-5-(1H-pyrazol-1-yl)phenoxy)-7-methoxyquinoline-6-carboxamide] | 0.001 to 1 | 0.001 to 1 | 6.00 to 9.00
2 | COc1cc(NC(C)=O)cc(Oc2ccnc3ccc(I)cc23)c1 [Compound 60, N-(3-((6-iodoquinolin-4-yl)oxy)-5-methoxyphenyl) acetamide] | 0.001 to 1 | 0.001 to 1 | 6.00 to 9.00
3 | COc1cc(Oc2ccnc3ccc(C(N)=O)cc23)cc(-n2cccn2)c1 [Compound 61, 4-(3-Methoxy-5-(1H-pyrazol-1-yl)phenoxy) quinolin-6-carbazamide] | 0.001 to 1 | 0.001 to 1 | 6.00 to 9.00
4 | COc1cc(Oc2ccnc3cc(OC)c(C(N)=O)cc23)cc(-c2ncccn2)c1 [Compound 62, 7-Methoxy-4-(3-methoxy-5-(pyridimin-2-yl)phenoxy) quinoline-6-carboxamide] | 0.001 to 1 | 0.001 to 1 | 6.00 to 9.00
5 | COc1cc(Oc2ccnc3cc(OC)c(OC)cc23)cc(-c2ncccn2)c1 [Compound 63, 6,7-Dimethoxy-4-(3-methoxy-5-(pyrimidin-2-yl)phenoxy) quinoline] | 0.001 to 1 | 0.001 to 1 | 6.00 to 9.00
6 | COc1cc(Oc2ccnc3cc(OC)c(C(N)=O)cc23)cc(-c2nc(C)no2)c1 [Compound 64, 7-Methoxy-4-(3-methoxy-5-(3-methyl-1,2,4-oxadiazol-5-yl)phenoxy)quinoline-6-carboxamide] | 0.001 to 1 | 0.001 to 1 | 6.00 to 9.00
7 | CCOc1cc(Oc2ccnc3ccc(C(N)=O)cc23)cc(-n2cccn2)c1 [Compound 65, 4-(3-Ethoxy-5-(MH-pyrazol-1-yl)phenoxy) quinoline-6-carboxamide] | 0.001 to 1 | 0.001 to 1 | 6.00 to 9.00
8 | COc1cc(Oc2ccnc3cc(OC)c(C(N)=O)cc23)cc(-c2cnn(C)c2)c1 [Compound 66, 7-Methoxy-4-(3-methoxy-5-(1-methyl-H-pyrazol-4-yl)phenoxy)quinoline-6-carboxamide] | 0.001 to 1 | 0.001 to 1 | 6.00 to 9.00
9 | COc1cc(Oc2ccnc3ccc(Br)cc23)cc(-c2nc(C)no2)c1 [Compound 67, 5-(3-((6-Bromoquinolin-4-yl)oxy)-5-methoyphenyl)-3-methyl-1,2,4-oxadiazole] | 0.001 to 1 | 0.001 to 1 | 6.00 to 9.00
10 | CCOc1cc(Oc2ccnc3ccc(Br)cc23)cc(C(=O)NC)c1 [Compound 68] | 0.001 to 1 | 0.001 to 1 | 6.00 to 9.00
11 | COc1cc(OC)cc(Oc2ccnc3cc(OC)c(C(N)=O)cc23)c1 [Compound 69, 4-(3,5-Dimethoxyphenoxy)-7-methoxyquinolin-6-carboxamide] | 0.001 to 1 | 0.001 to 1 | 6.00 to 9.00
12 | CNC(=O)c1cc(OC)cc(Oc2ccnc3ccc(C(F)(F)F)cc23)c1 [Compound 70, 3-Methoxy-N-methyl-5-((6-(trifluoromethyl)quinolin-4-yl)oxy) benzamide] | 1 to 10 | 1 to 10 | 5.00 to 6.00
13 | CNC(=O)c1cc(OC)cc(Oc2ccnc3cc(OC)c(C(N)=O)cc23)c1 [Compound 71, 7-Methoxy-4-(3-methoxy-5-(methylcarbamoyl)phenoxy) quinoline-6-carboxamide] | 1 to 10 | 1 to 10 | 5.00 to 6.00
14 | CNC(=O)c1cc(OC)cc(Oc2ccnc3ccc(Br)cc23)c1 [Compound 72, 3-((6-Bromoquinolin-4-yl)oxy)-5-methoxy-N-methylbenzamide] | 0.001 to 1 | 0.001 to 1 | 6.00 to 9.00
15 | COc1cc(Oc2ncnc3ccccc23)cc(-n2cccn2)c1 [Compound 73, 4-(3-Methoxy-5-(1H-pyrazol-1-yl)phenoxy) quinazoline] | 10 to 30 | 10 to 30 | 4.52 to 5.00
16 | COc1cc(Oc2ncnc3cc(OC)c(OC)cc23)cc(-n2cccn2)c1 [Compound 74, 4-(3-methoxy-5-(1H-pyrazol-1-yl)phenoxy)-6,7-dimethoxyquinazoline] | 10 to 30 | 10 to 30 | 4.52 to 5.00
17 | COc1cc(Oc2ncnc3cc(OC)c(OC)cc23)cc(-n2cnc(C)c2)c1 [Compound 75, 4-(3-Methoxy-5(4-methyl-H-imidazol-1-yl)phenoxy)-6,7-dimethoxyquinazoline] | 0.001 to 1 | 0.001 to 1 | 6.00 to 9.00

Row | Compound | minimal effective concentration [1] [µM] | minimal effective concentration (read-out: Mitotic Arrest (≥5%)) [µM] | pIC50
18 | COc1cc(Oc2ncnc3ccccc23)cc(-n2cnc(C)c2)c1 [Compound 76, 4-(3-Methoxy-5-(4-methyl-1H-imidazol-1-yl)phenoxy)quinazoline] | 1 to 10 | 1 to 10 | 5.00 to 6.00
19 | COc1cc(Oc2ccnc3ccccc23)cc(-n2cnc(C)c2)c1 [Compound 77, 4-(3-Methoxy-5-(4-methyl-1H-imidazol-1-yl)phenoxy)quinoline] | 0.001 to 1 | 0.001 to 1 | 6.00 to 9.00
20 | COc1cc(Oc2ncnc3ccccc23)cc(-n2ccnc2)c1 [Compound 78] | 1 to 10 | 1 to 10 | 5.00 to 6.00
21 | COc1cc(Oc2ncnc3cc(OC)c(OC)cc23)cc(-n2ccnc2)c1 [Compound 79, 4-(3-(1H-Imidazol-1-yl)-5-methoxyphenoxy)-6,7-dimethoxyquinazoline] | 10 to 30 | 10 to 30 | 4.52 to 5.00
22 | COc1cc(Oc2ccnc3cc(OC)c(C(N)=O)cc23)cc(O[C@H]2CCOC2)c1 [Compound 80, (S)-7-methoxy-4-(3-methoxy-5-((tetrahydrofuran-3-yl)oxy)phenoxy)quinoline-6-carboxamide] | 0.001 to 1 | 0.001 to 1 | –
23 | COc1cc(Oc2ccnc3cc(OC)c(C(N)=O)cc23)cc(O[C@@H]2CCOC2)c1 [Compound 81, (R)-7-methoxy-4-(3-methoxy-5-((tetrahydrofuran-3-yl)oxy)phenoxy)quinoline-6-carboxamide] | 0.001 to 1 | 0.001 to 1 | –
24 | COc1cc2nccc(Oc3cc(OC4CCOC4)cc(OC4CCOC4)c3)c2cc1C(N)=O (stereo not drawn) [Compound 82, 4-(3,5-bis((tetrahydrofuran-3-yl)oxy)phenoxy)-7-methoxyquinoline-6-carbonamide] | 1 to 10 | 1 to 10 | –
25 | COc1cc(OCC2CCOC2)cc(Oc2ccnc3cc(OC)c(C(N)=O)cc23)c1 (stereo not drawn) [Compound 83, 7-methoxy-4-(3-methoxy-5-((tetrahydrofuran-3-yl)methoxy)phenoxy)quinoline-6-carboxamide] | 0.001 to 1 | 0.001 to 1 | –
26 | COc1cc(Oc2ccnc3cc(OC)c(C(N)=O)cc23)cc(-n2cc(C)cn2)c1 [Compound 84] | 0.001 to 1 | 0.001 to 1 | –
27 | COc1cc(Oc2ccnc3cc(OC)c(C(N)=O)cc23)cc(-n2ccc(C)n2)c1 [Compound 85, 7-methoxy-4-(3-methoxy-5-(3-methyl-1H-pyrazol-1-yl)phenoxy)quinoline-6-carboxamide] | 0.001 to 1 | 0.001 to 1 | –
28 | COc1cc(Oc2ccnc3cc(OC)c(C(N)=O)cc23)cc(-n2nc(C)cc2C)c1 [Compound 86, 4-(3-(3,5-dimethyl-1H-pyrazol-1-yl)-5-methoxyphenoxy)-7-methoxyquinoline-6-carboxamide] | 1 to 10 | 1 to 10 | –
29 | COc1cc(Oc2ccnc3cc(OC)c(C(N)=O)cc23)cc(-c2nnc(C)o2)c1 [Compound 87, 7-methoxy-4-(3-methoxy-5-(5-methyl-1,3,4-oxadiazol-2-yl)phenoxy)quinoline-6-carboxamide] | 0.001 to 1 | 0.001 to 1 | –
30 | COc1cc(Oc2ccnc3cc(OC)c(Br)cc23)cc(-n2cccn2)c1 [Compound 88, 6-bromo-7-methoxy-4-(3-methoxy-5-(1H-pyrazol-1-yl)phenoxy)quinoline] | 0.001 to 1 | 0.001 to 1 | –
31 | COc1cc(OC)cc(Oc2ccnc3cc(OC)c(Br)cc23)c1 [Compound 89, 6-bromo-4-(3,5-dimethoxyphenoxy)-7-methoxyquinone] | 0.001 to 1 | 0.001 to 1 | –
32 | CNC(=O)c1cc(OC)cc(Oc2ccnc3cc(OC)c(Br)cc23)c1 [Compound 90, 3-((6-bromo-7-methoxyquinolin-4-yl)oxy)-5-methoxy-N-methylbenzamide] | 1 to 10 | 1 to 10 | –
33 | COc1cc(N)cc(Oc2ccnc3ccc(Br)cc23)c1 [Compound 91, 3-((6-bromoquinolin-4-yl)oxy)-5-methoxyaniline] | 0.001 to 1 | 0.001 to 1 | –

Source: patent US20240239806A1, “COMPOUNDS, COMPOSITIONS AND METHODS OF TREATING DISORDERS” (Chengdu Anticancer Bioscience, Ltd., priority 2021, published 2024)
